Results on one molecule are retold here after ChEMBL document CHEMBL3596152, “Synthesis of 1-O-acetylbritannilactone analogues from Inula britannica and in vitro evaluation of their anticancer potential” (Medchemcomm, 2014).

In assay [1] the test system is HeLa. As to the kind of experiment: Cytotoxicity against human HeLa cells assessed as reduction in cell viability at 1.57 to 12.5 uM in presence of 1 mM NAC incubated for 72 hrs by SRB assay. Format: functional, cell-based. On the technique in general: The SRB assay estimates cell density from bound dye.
For assay [2], the system named is HeLa. Nature of the assay: Induction of apoptosis in human HeLa cells assessed as early apoptotic cells levels at 3 uM incubated for 72 hrs by annexin V-FITC and propidium iodide staining based flow cytometry (reference value: 1.4%). Format: functional. (A flow cytometer gives signals particle by particle.)
Assay [3] in a line: Thiol reactivity in DMSO-d6 solution at 0.05 mmol in presence of beta-mercaptoethanol by 1H NMR Michael acceptor assay.
The subject of assay [4] is HeLa. As to the kind of experiment: Induction of apoptosis in human HeLa cells assessed as necrotic cells levels at 6 uM incubated for 72 hrs by annexin V-FITC and propidium iodide staining based flow cytometry (reference value: 0.2%). Format: functional.
The subject of assay [5] is HeLa. As to the kind of experiment: Induction of cell cycle arrest in human HeLa cells assessed as accumulation at G0/G1 phase at 5 uM incubated for 24 hrs by propidium iodide staining based flow cytometry (reference value: 31.1%). Format: functional.
Assay [6] relates to HeLa. Nature of the assay: Induction of cell cycle arrest in human HeLa cells assessed as accumulation at G2/M pahse at 5 uM incubated for 24 hrs by propidium iodide staining based flow cytometry (reference value: 28.4%). Format: functional.
A short description of assay [7]: Cytotoxicity against human SGC7901 cells assessed as reduction in cell viability incubated for 72 hrs by SRB assay. Format: functional, cell-based. The following applies: SGC-7901, 72 h.
The subject of assay [8] is HeLa. Nature of the assay: Induction of cell cycle arrest in human HeLa cells assessed as accumulation at G2/M pahse at 10 uM incubated for 24 hrs by propidium iodide staining based flow cytometry (reference value: 28.4%). Format: functional.
In assay [9] the test system is HeLa. As to the kind of experiment: Induction of cell cycle arrest in human HeLa cells assessed as accumulation at S pahse at 10 uM incubated for 24 hrs by propidium iodide staining based flow cytometry (reference value: 40.5%). Format: functional.
The test system of assay [10] is HeLa. As to the kind of experiment: Cytotoxicity against human HeLa cells assessed as reduction in cell viability at 1.57 to 12.5 uM incubated for 72 hrs by SRB assay. Format: functional, cell-based.
A short description of assay [11]: Thiol reactivity in DMSO-d6 solution assessed as formation of 1-O-acetyl-6-O-benzoyl-13-(2-hydroxyethylthiol) britannilactone at 0.05 mmol in presence of beta-mercaptoethanol by 1H NMR Michael acceptor assay.
Assay [12] concerns HeLa. Nature of the assay: Induction of apoptosis in human HeLa cells assessed as necrotic cells levels at 3 uM incubated for 72 hrs by annexin V-FITC and propidium iodide staining based flow cytometry (reference value: 0.2%). Format: functional.
Assay [13] relates to HeLa. Nature of the assay: Induction of apoptosis in human HeLa cells assessed as early apoptotic cells levels at 6 uM incubated for 72 hrs by annexin V-FITC and propidium iodide staining based flow cytometry (reference value: 1.4%). Format: functional.
Assay [14] has as its system HeLa. As to the kind of experiment: Induction of apoptosis in human HeLa cells assessed as late apoptotic cells levels at 3 uM incubated for 72 hrs by annexin V-FITC and propidium iodide staining based flow cytometry (reference value: 2.8%). Format: functional.
Assay [15] deals with HeLa. Nature of the assay: Induction of cell cycle arrest in human HeLa cells assessed as accumulation at S pahse at 20 uM incubated for 24 hrs by propidium iodide staining based flow cytometry (reference value: 40.5%). Format: functional.
The test system of assay [16] is HeLa. As to the kind of experiment: Induction of apoptosis in human HeLa cells assessed as increase in cleaved caspase-3 levels at 3 to 12 uM incubated for 48 hrs by Western blotting method. Format: functional, cell-based. For orientation: A western blot detects proteins with antibodies after separation by electrophoresis.
Assay [17] deals with HeLa. As to the kind of experiment: Cytotoxicity against human HeLa cells assessed as reduction in cell viability incubated for 72 hrs by SRB assay. Format: functional, cell-based.
The subject of assay [18] is HeLa. As to the kind of experiment: Induction of cell cycle arrest in human HeLa cells assessed as accumulation at G0/G1 phase at 20 uM incubated for 24 hrs by propidium iodide staining based flow cytometry (reference value: 31.1%). Format: functional.
The test system of assay [19] is HeLa. Nature of the assay: Induction of apoptosis in human HeLa cells assessed as late apoptotic cells levels at 6 uM incubated for 72 hrs by annexin V-FITC and propidium iodide staining based flow cytometry (reference value: 2.8%). Format: functional.
Assay [20] relates to HeLa. As to the kind of experiment: Induction of cell cycle arrest in human HeLa cells assessed as accumulation at G2/M pahse at 20 uM incubated for 24 hrs by propidium iodide staining based flow cytometry (reference value: 28.4%). Format: functional.
For another assay, the system named is HCT-116. As to the kind of experiment: Cytotoxicity against human HCT116 cells assessed as reduction in cell viability incubated for 72 hrs by SRB assay. Format: functional, cell-based. The following applies: HCT-116, 72 h.
In assay [21] the test system is HeLa. Nature of the assay: Induction of cell cycle arrest in human HeLa cells assessed as accumulation at G0/G1 phase at 10 uM incubated for 24 hrs by propidium iodide staining based flow cytometry (reference value: 31.1%). Format: functional.
Assay [22] relates to HeLa. As to the kind of experiment: Induction of cell cycle arrest in human HeLa cells assessed as accumulation at S pahse at 5 uM incubated for 24 hrs by propidium iodide staining based flow cytometry (reference value: 40.5%). Format: functional.
Assay [23] can be described thus: Thiol reactivity in DMSO-d6 solution assessed as formation of 1,6-O,O-diacetyl-13-(2-hydroxyethylthiol) britannilactone at 0.05 mmol in presence of beta-mercaptoethanol by 1H NMR Michael acceptor assay.

The source made the active and inactive calls. The calls are words filed in the database; no cut-off is given here.

For the molecule `C=C1C(=O)O[C@@H]2CC(C)=C([C@@H](C)CCCOC(C)=O)[C@@H](OC(=O)c3ccccc3)[C@H]12`, the result with HeLa [1] was inactive. Also, the Activity with HeLa [2] worked out at 3.9%; with HeLa [4] it was 3.5%; in the assay with HeLa [5] it was 29.5%; in the assay on HeLa [6], 29.2%; with HeLa [8], 53.2%; with HeLa [9], 18.1%. The Activity entry in the assay with HeLa [10] is “Dose-dependent effect”; in the assay on HeLa [12], 0.3%; in the assay with HeLa [13], 4.5%; with HeLa [14], 6.9%; in the assay on HeLa [15] it was 15.6%; with HeLa [16], “Dose-dependent effect”. Besides, the Activity in the assay with HeLa [18] is given as 20.7%; with HeLa [19], 30%; with HeLa [20], 63.7%; in the assay on HeLa [21], 28.7%; in the assay with HeLa [22] it was 41.3%. The result in [3], in assay [11] and in assay [23] was Active. Besides, the IC50 (in general, the concentration needed to halve the response being measured) in assay [7] was determined as 9.93 µM; with HeLa [17], 5.19 µM; in the assay on HCT-116, 10.5 µM.
